Patent US20170080128A1, “NOVEL ENDOTRACHEAL TUBE FOR THE REDUCTION OF INTUBATION-RELATED COMPLICATION IN NEONATES AND BABIES” (Brigham Young University, priority 2015, published 2017)

System: tracheal mucosal integrity
Assay: Tracheal mucosal integrity of intubated pre-term lambs (histology)
Type: in vivo
Excerpt: FIG. 2 compares histological images of tracheal tissue of a pre-term lamb intubated with an ETT not coated with a CSA-containing coating to tracheal tissue of a pre-term lamb intubated with an ETT coated with a CSA-containing coating.
Pre-term lambs were intubated using ETTs including a coating having CSA-131 and tracheal mucosal integrity of the lambs was compared to the tracheal mucosal integrity of a control group (intubated with uncoated ETTs). […] FIG. 2 illustrates the histological appearance of tracheas of the premature lambs that were intubated for three days. […] An area of denuded epithelium (arrowhead), and accumulation of white blood cells (arrow) are highlighted.

CCCCCCCCCCCCNCCC[C@@H](C)[C@H]1CC[C@H]2[C@@H]3[C@H](OCCCN)C[C@@H]4C[C@H](OCCCN)CC[C@]4(C)[C@H]3C[C@H](OCCCN)[C@]12C.Cl.Cl.Cl.Cl [CSA-131]
Histological appearance of trachea (FIG. 2, image (b)) (ETT coated with a CSA-131 containing coating, intubated for three days): the epithelium is intact and the subjacent connective tissue region is not inflamed | Tracheal mucosal integrity compared to control group (uncoated ETTs) (ETTs including a coating having CSA-131): markedly improved mucosal integrity
